20 molecules from patent US11179383B2 (Gilead Sciences, Inc., priority 2018, dated 2021) can be followed below.

What is called EC50 is the concentration that produces a half-maximal response.

The first assay addresses T1, α4β7 integrin (Homo sapiens, UniProt P13612+P26010).
T1 construct: monitoring the capture of α4β7 integrin expressing cells on a recombinant MadCAM-1 extracellular domain-coated plate; endogenous in cells; host or cells: RPMI8866 cells
T1 sequence (P13612 34-1032): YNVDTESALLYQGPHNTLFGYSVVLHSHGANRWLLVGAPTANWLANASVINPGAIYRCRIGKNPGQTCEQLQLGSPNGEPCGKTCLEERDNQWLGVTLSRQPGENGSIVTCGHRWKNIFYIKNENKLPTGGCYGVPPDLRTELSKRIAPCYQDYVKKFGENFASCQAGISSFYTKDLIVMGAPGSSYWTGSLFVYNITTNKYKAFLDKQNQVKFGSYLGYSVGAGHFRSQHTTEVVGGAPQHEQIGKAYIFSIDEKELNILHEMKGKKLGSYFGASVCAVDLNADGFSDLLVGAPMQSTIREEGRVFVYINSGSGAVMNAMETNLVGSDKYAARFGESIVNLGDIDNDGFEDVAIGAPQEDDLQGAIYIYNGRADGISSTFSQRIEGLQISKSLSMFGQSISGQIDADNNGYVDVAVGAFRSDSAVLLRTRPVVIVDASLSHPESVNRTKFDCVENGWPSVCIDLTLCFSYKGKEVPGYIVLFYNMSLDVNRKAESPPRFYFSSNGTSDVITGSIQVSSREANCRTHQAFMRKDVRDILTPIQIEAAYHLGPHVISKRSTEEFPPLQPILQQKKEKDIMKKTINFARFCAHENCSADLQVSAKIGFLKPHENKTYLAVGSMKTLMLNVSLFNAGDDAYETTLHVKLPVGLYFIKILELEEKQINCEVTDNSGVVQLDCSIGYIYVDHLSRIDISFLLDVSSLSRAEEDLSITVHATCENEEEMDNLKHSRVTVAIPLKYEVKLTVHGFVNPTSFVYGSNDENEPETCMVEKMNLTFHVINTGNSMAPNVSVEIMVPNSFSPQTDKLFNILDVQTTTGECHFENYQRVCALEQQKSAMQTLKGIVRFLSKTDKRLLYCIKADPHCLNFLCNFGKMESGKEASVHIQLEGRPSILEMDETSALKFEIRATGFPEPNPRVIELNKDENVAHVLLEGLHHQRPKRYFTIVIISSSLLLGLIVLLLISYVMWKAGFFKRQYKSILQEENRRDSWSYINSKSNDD
T1 sequence (P26010 20-798): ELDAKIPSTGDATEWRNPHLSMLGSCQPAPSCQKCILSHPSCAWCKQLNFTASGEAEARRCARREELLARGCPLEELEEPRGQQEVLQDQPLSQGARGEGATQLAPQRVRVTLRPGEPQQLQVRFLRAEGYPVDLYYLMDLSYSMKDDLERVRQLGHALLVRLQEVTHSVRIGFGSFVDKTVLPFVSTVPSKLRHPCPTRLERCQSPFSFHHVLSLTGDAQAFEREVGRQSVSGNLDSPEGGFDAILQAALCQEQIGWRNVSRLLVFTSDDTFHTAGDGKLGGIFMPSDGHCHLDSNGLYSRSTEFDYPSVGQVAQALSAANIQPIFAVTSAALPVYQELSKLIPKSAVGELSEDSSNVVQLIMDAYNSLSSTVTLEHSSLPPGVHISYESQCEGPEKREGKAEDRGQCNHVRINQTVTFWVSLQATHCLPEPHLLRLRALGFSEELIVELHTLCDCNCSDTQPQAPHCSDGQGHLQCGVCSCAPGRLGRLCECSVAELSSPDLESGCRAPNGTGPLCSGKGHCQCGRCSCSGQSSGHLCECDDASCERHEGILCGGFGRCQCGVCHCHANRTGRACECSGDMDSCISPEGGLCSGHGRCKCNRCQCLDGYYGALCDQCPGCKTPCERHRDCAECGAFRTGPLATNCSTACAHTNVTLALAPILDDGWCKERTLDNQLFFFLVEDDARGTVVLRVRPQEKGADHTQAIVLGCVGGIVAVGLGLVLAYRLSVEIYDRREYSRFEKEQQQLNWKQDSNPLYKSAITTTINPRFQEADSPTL
Description: α4β7 Integrin Cell Capture Assay. The class given is cell-based. The settings on record: EC50 α4β7 (nM), capture of α4β7 integrin expressing RPMI8866 cells on recombinant MadCAM-1 extracellular domain-coated plate; DMEM+0.5% FBS+0.5 mM MnCl2. In outline: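 RPMI8866 cells in DMEM + 0.5% FBS + 0.5 mM MnCl2 preincubated with compound 1 h at 37 °C, then allowed to bind 30 min at 37 °C to plates coated with MAdCAM-1 extracellular domain (1.0 μg/mL). Cells fixed with glutaraldehyde, Hoechst-stained, imaged and bound cells counted; EC50 from cell count versus concentration.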
For `CN(C)C(=O)Oc1ccc(C[C@H](NC(=O)c2c(Cl)cccc2Cl)C(=O)O)c2ncccc12` [Example 89, (S)-2-(2,6-dichlorobenzamido)-3-(5-((dimethylcarbamoyl)oxy)quinolin-8-yl)propanoic acid], the EC50 turned out to be 173 nM.

The assay is the same for the next values; noted with them: capture of α4β7 integrin expressing RPMI8866 cells on recombinant MadCAM-1 extracellular domain-coated plate; DMEM+0.5% FBS+0.5 mM MnCl2; read-out: EC50 α4β7.
For the molecule `Cn1c(=O)c(-c2ccc(C[C@H](NC(=O)c3c(F)cccc3F)C(=O)O)c3ncccc23)cc2ccccc21` [Example 84, (S)-2-(2,6-difluorobenzamido)-3-(1-methyl-2-oxo-1,2-dihydro-[3,5′-biquinolin]-8′-yl)propanoic acid], the 50% effective concentration (EC50) turned out to be 10.9 nM.
For `O=C(N[C@@H](Cc1ccc(-c2ccc(F)cc2Cl)c2c(Cl)ccnc12)C(=O)O)c1c(F)cccc1F` [Example 90, (S)-3-(4-chloro-5-(2-chloro-4-fluorophenyl)quinolin-8-yl)-2-(2,6-difluorobenzamido)propanoic acid], the EC50 was determined as 4280 nM.
For `O=C(N[C@@H](Cc1ccc(-c2ccc(F)cc2Cl)c2c(-c3ccc(F)cc3Cl)ccnc12)C(=O)O)c1c(F)cccc1F` [Example 91, (S)-3-(4,5-bis(2-chloro-4-fluorophenyl)quinolin-8-yl)-2-(2,6-difluorobenzamido)propanoic acid], the EC50 worked out at 686 nM.
On to `COc1cc(F)c(F)cc1-c1ccc(C[C@H](NC(=O)c2c(F)cccc2F)C(=O)O)c2nccc(Cl)c12` [Example 92, (S)-3-(4-chloro-5-(4,5-difluoro-2-methoxyphenyl)quinolin-8-yl)-2-(2,6-difluorobenzamido)propanoic acid], for which the EC50 was found to be 89.4 nM.
For `CCOCc1cc(OC)c(-c2ccc(C[C@H](NC(=O)c3c(F)cccc3F)C(=O)O)c3nccc(Cl)c23)c(OC)c1` [Example 93, (S)-3-(4-chloro-5-(4-(ethoxymethyl)-2,6-dimethoxyphenyl)quinolin-8-yl)-2-(2,6-difluorobenzamido)propanoic acid], the EC50 was 26.8 nM.
Take `COc1cc(F)c(F)cc1-c1ccc(C[C@H](NC(=O)c2c(Cl)cccc2Cl)C(=O)O)c2nccc(Cl)c12` [Example 94, (S)-3-(4-chloro-5-(4,5-difluoro-2-methoxyphenyl)quinolin-8-yl)-2-(2,6-dichlorobenzamido)propanoic acid]: the half-maximal effective concentration (EC50) was determined as 111 nM.
`COc1cc(F)c(F)cc1-c1ccc(C[C@H](NC(=O)c2c(Cl)cccc2Cl)C(=O)O)c2nccc(C)c12` [Example 97, (S)-2-(2,6-dichlorobenzamido)-3-(5-(4,5-difluoro-2-methoxyphenyl)-4-methylquinolin-8-yl)propanoic acid]: the concentration giving a half-maximal response (EC50) came out at 97.2 nM.
In the case of `Cc1ccnc2c(C[C@H](NC(=O)c3c(Cl)cccc3Cl)C(=O)O)ccc(-c3cc4ccccc4n(C)c3=O)c12` [Example 100, (S)-2-(2,6-dichlorobenzamido)-3-(1,4′-dimethyl-2-oxo-1,2-dihydro-[3,5′-biquinolin]-8′-yl)propanoic acid], the EC50 stood at 22.2 nM.
Still for that read-out and setting: the result for `COc1cccc(OC)c1-c1ccc(C[C@H](NC(=O)c2c(F)cc(NS(=O)(=O)c3ccc(-c4ccnc(F)c4)cc3)cc2F)C(=O)O)c2ncccc12` [Example 101, (S)-2-(2,6-difluoro-4-((4-(2-fluoropyridin-4-yl)phenyl)sulfonamido)benzamido)-3-(5-(2,6-dimethoxyphenyl)quinolin-8-yl)propanoic acid] reads 1.7 nM; that for `CCOCc1cc(OC)c(-c2ccc(C[C@H](NC(=O)c3c(F)cc(NS(=O)(=O)c4ccc(-c5ccnc(F)c5)cc4)cc3F)C(=O)O)c3ncccc23)c(OC)c1` [Example 102, (S)-2-(2,6-difluoro-4-((4-(2-fluoropyridin-4-yl)phenyl)sulfonamido)benzamido)-3-(5-(4-(ethoxymethyl)-2,6-dimethoxyphenyl)quinolin-8-yl)propanoic acid], 1 nM; that for `COc1cccc(OC)c1-c1ccc(C[C@H](NC(=O)c2c(F)cc(NS(=O)(=O)c3ccc(-c4ccnc(F)c4)cc3)cc2F)C(=O)O)c2ccccc12` [Example 103, (S)-2-(2,6-difluoro-4-((4-(2-fluoropyridin-4-yl)phenyl)sulfonamido)benzamido)-3-(4-(2,6-dimethoxyphenyl)naphthalen-1-yl)propanoic acid], 1.9 nM.
Same read-out and setting: the result for `COc1cccc(OC)c1-c1ccc(C[C@H](NC(=O)c2c(F)cc(NS(=O)(=O)c3ccc(-n4cncn4)cc3)cc2F)C(=O)O)c2ccccc12` [Example 104, (S)-2-(4-((4-(1H-1,2,4-triazol-1-yl)phenyl)sulfonamido)-2,6-difluorobenzamido)-3-(4-(2,6-dimethoxyphenyl)naphthalen-1-yl)propanoic acid] reads 0.8 nM; that for `CCOCc1cc(OC)c(-c2ccc(C[C@H](NC(=O)c3c(F)cc(NS(=O)(=O)c4ccc(-c5ccnc(F)c5)cc4)cc3F)C(=O)O)c3ccccc23)c(OC)c1` [Example 105, (S)-2-(2,6-difluoro-4-((4-(2-fluoropyridin-4-yl)phenyl)sulfonamido)benzamido)-3-(4-(4-(ethoxymethyl)-2,6-dimethoxyphenyl)naphthalen-1-yl)propanoic acid], 0.8 nM; that for `O=C(N[C@@H](Cc1ccc(-c2c(Cl)cc(F)cc2Cl)c2ccccc12)C(=O)O)c1c(F)cccc1F` [Example 106, (S)-3-(4-(2,6-dichloro-4-fluorophenyl)naphthalen-1-yl)-2-(2,6-difluorobenzamido)propanoic acid], 196 nM.
Consider `O=C(N[C@@H](Cc1ccc(-c2c(Cl)cc(F)cc2Cl)c2ccccc12)C(=O)O)c1c(Cl)cccc1Cl` [Example 107, (S)-3-(4-(2,6-dichloro-4-fluorophenyl)naphthalen-1-yl)-2-(2,6-dichlorobenzamido)propanoic acid], for which the EC50 was determined as 139 nM.
In the case of `Cn1c(=O)c(-c2ccc(C[C@H](NC(=O)c3c(Cl)cccc3Cl)C(=O)O)c3ccccc23)cc2ccccc21` [Example 108, (S)-2-(2,6-dichlorobenzamido)-3-(4-(1-methyl-2-oxo-1,2-dihydroquinolin-3-yl)naphthalen-1-yl)propanoic acid], the EC50 was found to be 3.4 nM.
Regarding `O=C(N[C@@H](Cc1ccc(-c2cccc3c2OCCC3)c2ccccc12)C(=O)O)c1c(Cl)cccc1Cl` [Example 111, (S)-3-(4-(chroman-8-yl)naphthalen-1-yl)-2-(2,6-dichlorobenzamido) propanoic acid], the EC50 is 76.6 nM.
Still for that read-out and setting: the result for `O=C(N[C@@H](Cc1ccc(-c2cccc3c2OCCC3)c2ccccc12)C(=O)O)c1c(F)cccc1F` [Example 112, (S)-3-(4-(chroman-8-yl)naphthalen-1-yl)-2-(2,6-difluorobenzamido) propanoic acid] reads 53.3 nM; that for `O=C(N[C@@H](Cc1ccc(-c2ncc3ccccc3c2Br)c2ccccc12)C(=O)O)c1c(Cl)cccc1Cl` [Example 113, (S)-3-(4-(4-bromoisoquinolin-3-yl)naphthalen-1-yl)-2-(2,6-dichlorobenzamido) propanoic acid], 12.3 nM.
